The IC50 is the concentration that inhibits the measured activity by half. Low readings indicate greater potency in that assay, high ones weaker potency in that assay.

This experiment has as its target T1, Human MTHFD2 (Homo sapiens, UniProt P13995).
T1 construct: residues 36-350 in Uniport ID P13995; His6 (N); made in house; host or cells: E. coli
T1 sequence (P13995 36-350): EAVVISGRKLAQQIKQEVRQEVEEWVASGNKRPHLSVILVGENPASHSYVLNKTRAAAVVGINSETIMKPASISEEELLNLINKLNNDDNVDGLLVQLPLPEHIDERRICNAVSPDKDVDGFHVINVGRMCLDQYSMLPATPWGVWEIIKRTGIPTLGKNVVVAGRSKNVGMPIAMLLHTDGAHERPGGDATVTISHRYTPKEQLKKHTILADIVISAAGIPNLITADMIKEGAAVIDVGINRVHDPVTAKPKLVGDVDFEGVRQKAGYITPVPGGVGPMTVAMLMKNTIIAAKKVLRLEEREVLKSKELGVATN
Briefly: MTHFD2 Activity Assay (dehydrogenase activity, diaphorase/resazurin coupled fluorescence). It is filed as biochemical. Particulars: inhibitory activity (IC50 and/or binding constant); 0.2 nM MTHFD2, 11 concentrations. The gist of the method: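 Steps: compound + 0.2 nM enzyme, 15 min, pH 8.0 Hepes buffer; add 70 μM CH2-THF, 1 mM NAD+, 100 μM resazurin, diaphorase; 30 min; quench with EDTA; read fluorescence. Data normalized to DMSO (100%) and no-enzyme (0%) wells.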
A general note: Alamar Blue is a resazurin reagent that responds to reducing activity.
On to `Cn1c(Nc2ccncc2)nc2c1c(=O)n(Cc1cc3cnccc3[nH]1)c(=O)n2C` [Example 460, 1-((1H-pyrrolo[3,2-c]pyridin-2-yl)methyl)-3,7-dimethyl-8-(pyridin-4-ylamino)-1H-purine-2,6(3H,7H)-dione], for which the IC50 lay in the range of 10 to 1000 nM.
`Cn1c(Nc2ccnc(CCC(=O)N3CCNCC3)n2)nc2c1c(=O)n(Cc1cc3c(Cl)cccc3[nH]1)c(=O)n2C` [Example 428, 1-((4-chloro-1H-indol-2-yl)methyl)-3,7-dimethyl-8-(2-(3-oxo-3-(piperazin-1-yl)propyl)pyrimidin-4-ylamino)-1H-purine-2,6(3H,7H)-dione] registered an IC50 of 10 to 1000 nM.
The compound `COc1cc(Cn2c(=O)c3c(nc(N[C@@H]4CCC[C@H]4O)n3C)n(C)c2=O)ccc1Cl` [Example 103, 1-[(4-chloro-3-methoxyphenyl)methyl]-8-{[(1R,2R)-2-hydroxycyclopentyl]amino}-3,7-dimethyl-2,3,6,7-tetrahydro-1H-purine-2,6-dione] came in with an IC50 of 1000 to 5000 nM.
The compound `Cn1c(=O)n(Cc2ccc(Cl)c(Cl)c2)c(=O)c2c1nc(NC1CCCC(C(=O)O)C1)n2CCC(N)=O` (centres unmarked) [Example 318, 3-(7-(3-amino-3-oxopropyl)-1-(3,4-dichlorobenzyl)-3-methyl-2,6-dioxo-2,3,6,7-tetrahydro-1H-purin-8-ylamino)cyclohexanecarboxylic acid] registered an IC50 of 10 to 1000 nM.
Take `Cn1c(Nc2ccnc(CCC(=O)N3CCCCC3)n2)nc2c1c(=O)n(Cc1cc3c(Cl)cccc3[nH]1)c(=O)n2C` [Example 406, 1-((4-chloro-1H-indol-2-yl)methyl)-3,7-dimethyl-8-(2-(3-oxo-3-(piperidin-1-yl)propyl)pyrimidin-4-ylamino)-1H-purine-2,6(3H,7H)-dione]: the IC50 was in the range of 10 to 1000 nM.
Take `Cn1c(NC2CCCC(C(=O)O)C2)nc2c1c(=O)n(Cc1ccc(C(F)(F)F)cc1)c(=O)n2C` (racemic) [Example 115, (±)-3-(3,7-dimethyl-2,6-dioxo-1-(4-(trifluoromethyl)benzyl)-2,3,6,7-tetrahydro-1H-purin-8-ylamino)cyclohexanecarboxylic acid]: the IC50 lay in the range of 1000 to 5000 nM.
Compound `COCCNc1nc2c(c(=O)n(Cc3ccc(Cl)c(Cl)c3)c(=O)n2C)n1C` [Example 273, 1-[(3,4-dichlorophenyl)methyl]-8-(2-methoxyethylamino)-3,7-dimethyl-purine-2,6-dione] displayed an IC50 of 1000 to 5000 nM.
Regarding `Cn1c(N2CC(O)C2)nc2c1c(=O)n(Cc1cc3cc(Cl)ccc3[nH]1)c(=O)n2C` [Example 199, 1-((5-chloro-1H-indol-2-yl)methyl)-8-(3-hydroxyazetidin-1-yl)-3,7-dimethyl-1H-purine-2,6(3H,7H)-dione], the IC50 lay in the range of 1000 to 5000 nM.
The result for `Cn1c(-n2nccc2N)nc2c1c(=O)n(Cc1cc3ccccc3[nH]1)c(=O)n2C` [Example 217, 1-((1H-indol-2-yl)methyl)-8-(5-amino-1H-pyrazol-1-yl)-3,7-dimethyl-1H-purine-2,6(3H,7H)-dione] reads 10 to 1000 nM; that for `C[C@@H](CCO)Nc1nc2c(c(=O)n(Cc3ccc4sccc4c3)c(=O)n2C)n1C` [Example 51, 1-(1-benzothiophen-5-ylmethyl)-8-{[(2S)-4-hydroxybutan-2-yl]amino}-3,7-dimethyl-2,3,6,7-tetrahydro-1H-purine-2,6-dione], 10 to 1000 nM.
Compound `Cn1c(C2CNCCO2)nc2c1c(=O)n(Cc1cc3c(Cl)cccc3[nH]1)c(=O)n2C` (centres unmarked) [Example 453, 1-[(4-chloro-1H-indol-2-yl)methyl]-3,7-dimethyl-8-morpholin-2-yl-purine-2,6-dione] had an IC50 of 10 to 1000 nM.
`Cn1c(Nc2ccncn2)nc2c1c(=O)n(Cc1cc3cc(Cl)ccc3[nH]1)c(=O)n2C` [Example 208, 1-((5-chloro-1H-indol-2-yl)methyl)-3,7-dimethyl-8-(pyrimidin-4-ylamino)-1H-purine-2,6(3H,7H)-dione] had a half-maximal inhibitory concentration (IC50) of 10 to 1000 nM.
In the case of `C=Cc1nc2c(c(=O)n(Cc3ccc(Cl)c(Cl)c3)c(=O)n2C)n1C` [Example 160, 1-(3,4-dichlorobenzyl)-3,7-dimethyl-8-vinyl-1H-purine-2,6(3H,7H)-dione] it was 1000 to 5000 nM.
`Cn1c(NC2(C(=O)O)CCCC2)nc2c1c(=O)n(Cc1ccc(C(F)(F)F)cc1)c(=O)n2C` [Example 149, 1-(3,7-dimethyl-2,6-dioxo-1-(4-(trifluoromethyl)benzyl)-2,3,6,7-tetrahydro-1H-purin-8-ylamino)cyclopentanecarboxylic acid] displayed an IC50 above 10000 nM.
The compound `Cn1c(Nc2ccc(C#N)nc2)nc2c1c(=O)n(Cc1cc3c(Cl)cccc3[nH]1)c(=O)n2C` [Example 427, 5-(1-((4-chloro-1H-indol-2-yl)methyl)-3,7-dimethyl-2,6-dioxo-2,3,6,7-tetrahydro-1H-purin-8-ylamino)picolinonitrile] registered an IC50 of 10 to 1000 nM.
As for `CC(=O)NCc1nccc(Nc2nc3c(c(=O)n(Cc4cc5c(Cl)cccc5[nH]4)c(=O)n3C)n2C)n1` [Example 451, N-((4-(1-((4-chloro-1H-indol-2-yl)methyl)-3,7-dimethyl-2,6-dioxo-2,3,6,7-tetrahydro-1H-purin-8-ylamino)pyrimidin-2-yl)methyl)acetamide], the IC50 was 10 to 1000 nM.
With `Cn1c(N[C@@H]2CCC[C@@H](O)C2)nc2c1c(=O)n(Cc1ccc(Cl)c(Cl)c1)c(=O)n2C` (racemic) [Example 172, (±)-1-(3,4-dichlorobenzyl)-8-((trans)-3-hydroxycyclohexylamino)-3,7-dimethyl-1H-purine-2,6(3H,7H)-dione], the IC50 was 10 to 1000 nM.
Compound `Cn1c(=O)c2c(nc(CCN)n2C)n(C)c1=O` [Example 394, 8-(2-aminoethyl)-1,3,7-trimethyl-1H-purine-2,6(3H,7H)-dione] gave an IC50 of 5000 to 10000 nM.
Compound `CC(C)C(N)c1nc2c(c(=O)n(Cc3cc4c(Cl)cccc4[nH]3)c(=O)n2C)n1C` (centres unmarked) [Example 437, 8-(1-amino-2-methyl-propyl)-1-[(4-chloro-1H-indol-2-yl)methyl]-3,7-dimethyl-purine-2,6-dione] had an IC50 of 10 to 1000 nM.
`C/C(=N/O)c1nc2c(c(=O)n(Cc3cc4c(Cl)cccc4[nH]3)c(=O)n2C)n1C` [Example 481, (Z)-1-((4-chloro-1H-indol-2-yl)methyl)-8-(1-(hydroxyimino)ethyl)-3,7-dimethyl-1H-purine-2,6(3H,7H)-dione or (E)-1-((4-chloro-1H-indol-2-yl)methyl)-8-(1-(hydroxyimino)ethyl)-3,7-dimethyl-1H-purine-2,6(3H,7H)-dione] came in with an IC50 of 10 to 1000 nM.
`Cn1c(NC2CC(F)(F)C2)nc2c1c(=O)n(Cc1ccc(C(F)(F)F)cc1)c(=O)n2C` [Example 145, 8-(3,3-difluorocyclobutylamino)-3,7-dimethyl-1-(4-(trifluoromethyl)benzyl)-1H-purine-2,6(3H,7H)-dione] returned an IC50 above 10000 nM.
As to `Cn1c(Nc2ccnc([C@H]3C[C@@H]3C(=O)O)c2)nc2c1c(=O)n(Cc1ccc(Cl)c(Cl)c1)c(=O)n2C` (single isomer, unassigned) [Example 301, (1S,2S)-2-(4-((1-(3,4-dichlorobenzyl)-3,7-dimethyl-2,6-dioxo-2,3,6,7-tetrahydro-1H-purin-8-yl)amino)pyridin-2-yl)cyclopropanecarboxylic acid or (1R,2R)-2-(4-((1-(3,4-dichlorobenzyl)-3,7-dimethyl-2,6-dioxo-2,3,6,7-tetrahydro-1H-purin-8-yl)amino)pyridin-2-yl)cyclopropanecarboxylic acid], the IC50 lay in the range of 10 to 1000 nM.
On to `Cc1ccc2[nH]c(Cn3c(=O)c4c(nc(CCN5CCOCC5)n4C)n(C)c3=O)cc2c1` [Example 227, 3,7-dimethyl-1-((5-methyl-1H-indol-2-yl)methyl)-8-(2-morpholinoethyl)-1H-purine-2,6(3H,7H)-dione], for which the IC50 was in the range of 1000 to 5000 nM.
The result for `Cn1c(Nc2ccc(CO)nc2)nc2c1c(=O)n(Cc1cc3c(Cl)cccc3[nH]1)c(=O)n2C` [Example 407, 1-((4-chloro-1H-indol-2-yl)methyl)-8-(6-(hydroxymethyl)pyridin-3-ylamino)-3,7-dimethyl-1H-purine-2,6(3H,7H)-dione] reads 10 to 1000 nM; that for `Cn1c(Nc2ccc(C(=O)O)cc2)nc2c1c(=O)n(Cc1cc3c(Cl)cccc3[nH]1)c(=O)n2C` [Example 331, 4-[[1-[(4-chloro-1H-indol-2-yl)methyl]-3,7-dimethyl-2,6-dioxo-purin-8-yl]amino]benzoic acid], 10 to 1000 nM.
`C[C@@H](O)CNc1nc2c(c(=O)n(Cc3ccc(Cl)cc3)c(=O)n2C)n1C` [Example 17, 1-[(4-chlorophenyl)methyl]-8-{[(2R)-2-hydroxypropyl]amino}-3,7-dimethyl-2,3,6,7-tetrahydro-1H-purine-2,6-dione]: the IC50 fell in the range of 5000 to 10000 nM.
Compound `Cn1c(C(N)C2CCCCC2)nc2c1c(=O)n(Cc1cc3c(Cl)cccc3[nH]1)c(=O)n2C` (centres unmarked) [Example 446, 8-[amino(cyclohexyl)methyl]-1-[(4-chloro-1H-indol-2-yl)methyl]-3,7-dimethyl-purine-2,6-dione] yielded an IC50 of 10 to 1000 nM.
Take `Cn1c(C2CCCN2)nc2c1c(=O)n(Cc1cc3c(Cl)cccc3[nH]1)c(=O)n2C` (centres unmarked) [Example 424, 1-[(4-chloro-1H-indol-2-yl)methyl]-3,7-dimethyl-8-pyrrolidin-2-yl-purine-2,6-dione]: the IC50 fell in the range of 10 to 1000 nM.
`Cn1c(N[C@@H]2CCCOC2)nc2c1c(=O)n(Cc1ccc(Cl)c(Cl)c1)c(=O)n2C` [Example 47, 1-[(3,4-dichlorophenyl)methyl]-3,7-dimethyl-8-{[(3R)-oxan-3-yl]amino}-2,3,6,7-tetrahydro-1H-purine-2,6-dione] registered an IC50 of 10 to 1000 nM.

The record behind these values is patent publication US12187728B2 (Raze Therapeutics, Inc., priority 2015, dated 2025).
